Holding throughout (type): binding
What all share (settings): Compound Concentration 10 µM

Assay [1] deals with T1, panel of 442 kinases (Homo sapiens, UniProt P00533, T790M).
T1 construct: purchased KINOMEscan
An excerpt:
(§1) We assessed the selectivity of members of this scaffold using the KINOMEscan methodology across a near comprehensive panel of 442 kinases [[18,27]].

The target in assay [2] is T2, panel of 442 kinases (Homo sapiens, UniProt P16591).
T2 construct: purchased KINOMEscan
Source text: as §1

Assay [3] concerns the target T3, panel of 442 kinases (Homo sapiens, UniProt P09619).
T3 construct: purchased KINOMEscan
Source text: as §1

Assay [4] has as its target T4, panel of 442 kinases (Homo sapiens, UniProt Q15375).
T4 construct: purchased KINOMEscan
Source text: as §1

Data on four molecules can be found in paper PMC3914206.

The structures appear in SMILES notation.

T2 sequence (P16591 whole entry): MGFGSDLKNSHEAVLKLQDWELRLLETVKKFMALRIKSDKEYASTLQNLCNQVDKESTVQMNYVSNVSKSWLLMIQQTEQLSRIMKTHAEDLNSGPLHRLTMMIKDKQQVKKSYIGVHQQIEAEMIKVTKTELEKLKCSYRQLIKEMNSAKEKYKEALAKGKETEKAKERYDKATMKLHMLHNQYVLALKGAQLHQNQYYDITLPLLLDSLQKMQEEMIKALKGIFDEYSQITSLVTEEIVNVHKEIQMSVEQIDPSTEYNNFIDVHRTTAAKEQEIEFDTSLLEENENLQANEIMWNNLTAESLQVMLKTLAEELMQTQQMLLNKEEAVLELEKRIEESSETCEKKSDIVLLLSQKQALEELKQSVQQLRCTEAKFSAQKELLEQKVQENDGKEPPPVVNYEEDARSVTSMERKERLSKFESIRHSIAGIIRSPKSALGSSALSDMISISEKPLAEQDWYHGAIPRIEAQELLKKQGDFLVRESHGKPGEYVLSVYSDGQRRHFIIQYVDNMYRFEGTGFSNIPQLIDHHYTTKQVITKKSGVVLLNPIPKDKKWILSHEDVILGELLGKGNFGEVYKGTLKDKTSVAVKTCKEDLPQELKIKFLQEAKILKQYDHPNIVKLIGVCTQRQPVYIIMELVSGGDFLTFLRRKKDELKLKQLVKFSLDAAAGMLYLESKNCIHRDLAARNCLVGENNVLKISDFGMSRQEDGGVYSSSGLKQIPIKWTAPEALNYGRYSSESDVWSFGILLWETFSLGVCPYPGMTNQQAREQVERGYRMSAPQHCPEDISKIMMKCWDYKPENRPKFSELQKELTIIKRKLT
T3 sequence (P09619 33-1106): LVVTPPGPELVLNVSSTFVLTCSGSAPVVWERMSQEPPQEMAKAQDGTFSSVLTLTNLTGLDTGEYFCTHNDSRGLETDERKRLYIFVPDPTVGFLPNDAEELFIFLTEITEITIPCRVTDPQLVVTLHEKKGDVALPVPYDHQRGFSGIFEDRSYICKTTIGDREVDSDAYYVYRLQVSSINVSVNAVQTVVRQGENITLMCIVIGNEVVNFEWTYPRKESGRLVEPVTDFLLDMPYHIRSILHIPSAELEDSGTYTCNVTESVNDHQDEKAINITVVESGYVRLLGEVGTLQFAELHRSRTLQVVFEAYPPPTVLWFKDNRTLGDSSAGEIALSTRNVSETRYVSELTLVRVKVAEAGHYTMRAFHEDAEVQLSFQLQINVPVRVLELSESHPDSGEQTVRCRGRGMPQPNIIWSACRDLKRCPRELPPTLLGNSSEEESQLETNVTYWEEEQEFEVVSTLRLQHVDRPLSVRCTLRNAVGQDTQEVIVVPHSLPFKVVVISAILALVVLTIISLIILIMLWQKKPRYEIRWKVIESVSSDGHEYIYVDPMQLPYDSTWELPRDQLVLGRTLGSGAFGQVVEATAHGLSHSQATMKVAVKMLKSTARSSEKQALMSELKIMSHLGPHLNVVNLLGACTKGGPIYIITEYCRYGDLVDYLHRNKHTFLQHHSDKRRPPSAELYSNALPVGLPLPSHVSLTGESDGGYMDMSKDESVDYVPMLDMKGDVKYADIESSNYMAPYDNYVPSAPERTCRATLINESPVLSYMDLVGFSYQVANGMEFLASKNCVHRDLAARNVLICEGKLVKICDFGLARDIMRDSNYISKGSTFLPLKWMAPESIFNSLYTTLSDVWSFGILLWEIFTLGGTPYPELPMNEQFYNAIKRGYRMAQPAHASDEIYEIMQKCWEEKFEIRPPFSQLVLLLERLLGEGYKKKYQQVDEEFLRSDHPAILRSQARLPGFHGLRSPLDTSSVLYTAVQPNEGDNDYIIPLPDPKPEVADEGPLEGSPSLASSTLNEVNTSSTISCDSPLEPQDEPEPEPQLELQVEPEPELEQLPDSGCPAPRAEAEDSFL
T4 sequence (Q15375 28-998): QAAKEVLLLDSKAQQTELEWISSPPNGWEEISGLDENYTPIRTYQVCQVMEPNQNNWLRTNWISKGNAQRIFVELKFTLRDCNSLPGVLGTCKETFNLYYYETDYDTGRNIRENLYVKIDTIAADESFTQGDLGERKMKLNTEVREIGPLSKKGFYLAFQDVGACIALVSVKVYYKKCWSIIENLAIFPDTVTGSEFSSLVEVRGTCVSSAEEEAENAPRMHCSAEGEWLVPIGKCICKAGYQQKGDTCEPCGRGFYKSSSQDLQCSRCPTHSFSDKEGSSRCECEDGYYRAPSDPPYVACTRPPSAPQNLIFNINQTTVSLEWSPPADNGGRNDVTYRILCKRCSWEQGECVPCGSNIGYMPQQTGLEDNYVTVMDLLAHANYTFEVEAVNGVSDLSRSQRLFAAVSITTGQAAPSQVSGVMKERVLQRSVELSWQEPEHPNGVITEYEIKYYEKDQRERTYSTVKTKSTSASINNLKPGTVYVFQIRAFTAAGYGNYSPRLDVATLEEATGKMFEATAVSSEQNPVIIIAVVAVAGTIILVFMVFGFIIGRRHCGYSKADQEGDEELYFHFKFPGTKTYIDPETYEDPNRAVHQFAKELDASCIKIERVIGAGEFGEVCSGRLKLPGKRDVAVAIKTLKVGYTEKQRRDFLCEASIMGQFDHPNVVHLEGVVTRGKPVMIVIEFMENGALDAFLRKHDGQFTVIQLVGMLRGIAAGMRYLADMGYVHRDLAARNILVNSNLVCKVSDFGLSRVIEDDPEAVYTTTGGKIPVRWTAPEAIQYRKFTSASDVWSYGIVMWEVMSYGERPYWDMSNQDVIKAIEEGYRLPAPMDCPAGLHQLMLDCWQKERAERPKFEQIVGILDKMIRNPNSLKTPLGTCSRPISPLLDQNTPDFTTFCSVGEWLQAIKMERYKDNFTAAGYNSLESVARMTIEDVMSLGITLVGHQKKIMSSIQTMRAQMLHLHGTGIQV
T1 sequence (P00533 25-1210 T790M): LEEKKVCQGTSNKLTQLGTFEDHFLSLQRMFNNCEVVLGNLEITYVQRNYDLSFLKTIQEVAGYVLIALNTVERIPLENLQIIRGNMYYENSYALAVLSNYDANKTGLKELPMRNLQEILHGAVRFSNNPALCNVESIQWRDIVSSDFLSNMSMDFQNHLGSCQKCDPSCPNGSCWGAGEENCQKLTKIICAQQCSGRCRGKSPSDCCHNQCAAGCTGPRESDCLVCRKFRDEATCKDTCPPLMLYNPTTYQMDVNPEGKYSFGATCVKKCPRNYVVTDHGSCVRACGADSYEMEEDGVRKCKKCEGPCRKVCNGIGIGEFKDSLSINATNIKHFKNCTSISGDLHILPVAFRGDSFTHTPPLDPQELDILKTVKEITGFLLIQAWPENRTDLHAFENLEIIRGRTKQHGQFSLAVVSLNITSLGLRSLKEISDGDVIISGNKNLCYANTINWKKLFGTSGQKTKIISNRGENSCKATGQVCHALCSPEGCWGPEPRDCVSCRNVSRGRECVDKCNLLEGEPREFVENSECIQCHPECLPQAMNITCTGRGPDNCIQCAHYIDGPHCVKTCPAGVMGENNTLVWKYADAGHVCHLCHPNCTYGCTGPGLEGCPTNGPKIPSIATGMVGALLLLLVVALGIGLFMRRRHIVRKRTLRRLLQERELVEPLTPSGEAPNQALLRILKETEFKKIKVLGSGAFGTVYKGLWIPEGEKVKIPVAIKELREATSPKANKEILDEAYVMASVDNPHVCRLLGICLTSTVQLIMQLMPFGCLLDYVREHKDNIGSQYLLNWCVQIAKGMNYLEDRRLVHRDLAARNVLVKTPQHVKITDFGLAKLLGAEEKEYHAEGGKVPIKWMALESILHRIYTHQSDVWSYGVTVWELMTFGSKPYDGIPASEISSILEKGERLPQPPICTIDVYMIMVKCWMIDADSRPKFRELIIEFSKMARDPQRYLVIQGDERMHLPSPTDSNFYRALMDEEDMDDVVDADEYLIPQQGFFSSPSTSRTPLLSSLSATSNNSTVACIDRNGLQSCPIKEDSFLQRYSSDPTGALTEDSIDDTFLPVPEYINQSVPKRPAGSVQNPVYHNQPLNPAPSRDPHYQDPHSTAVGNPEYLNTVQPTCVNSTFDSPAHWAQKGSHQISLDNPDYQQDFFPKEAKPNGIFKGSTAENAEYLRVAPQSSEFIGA

Take `COc1cc(C(=O)N2CCC(N3CCN(C)CC3)CC2)ccc1Nc1ncc2c(n1)N(C1CCCC1)c1ccccc1C(=O)N2C` [Compound 25, 11-cyclopentyl-2-((2-methoxy-4-(4-(4-methylpiperazin-1-yl)piperidine-1-carbonyl)phenyl)amino)-5-methyl-5H-benzo[e]pyrimido[5,4-b][1,4]diazepin-6(11H)-one]: the “KINOMEscan: EGFR(T790M)” value at panel of 442 kinases [1] is listed as 89. The “KINOMEscan: FER” value on panel of 442 kinases [2] came out at 38. Moreover, the “KINOMEscan: PDGFRB” value at panel of 442 kinases [3] was 83. On panel of 442 kinases [4], the “KINOMEscan: EPHA7” value worked out at 99.
In the case of `COc1cc(C(=O)N2CCC(N3CCN(C)CC3)CC2)ccc1Nc1ncc2c(n1)N1CCc3cccc(c31)C(=O)N2C` [Compound 24], the “KINOMEscan: EGFR(T790M)” value at panel of 442 kinases [1] is reported as 76. The “KINOMEscan: FER” value on panel of 442 kinases [2] came to 64. Also, at panel of 442 kinases [3], the “KINOMEscan: PDGFRB” value is 67.
Turning to `COc1cc(C(=O)N2CCC(N3CCN(C)CC3)CC2)ccc1Nc1ncc2c(n1)N(C)c1ccccc1C(=O)N2C` [15 (LRRK2-IN-1)], the “KINOMEscan: EGFR(T790M)” value on panel of 442 kinases [1] amounted to 88. At panel of 442 kinases [2], the “KINOMEscan: FER” value is 51. Moreover, the “KINOMEscan: PDGFRB” value at panel of 442 kinases [3] is 100. Moreover, the “KINOMEscan: EPHA7” value at panel of 442 kinases [4] was 97.
On to `CCOc1cc(C(=O)N2CCC(N3CCN(C)CC3)CC2)ccc1Nc1ncc2c(n1)N(C1CCCC1)c1ccccc1C(=O)N2C` [Compound 26], for which, on panel of 442 kinases [1], the “KINOMEscan: EGFR(T790M)” value is given as 100. Besides, the “KINOMEscan: FER” value on panel of 442 kinases [2] is reported as 96. Further, the “KINOMEscan: PDGFRB” value at panel of 442 kinases [3] stood at 100. Moreover, the “KINOMEscan: EPHA7” value at panel of 442 kinases [4] stood at 100.
